This is an account of results in patent publication US6723741B2, “Benzimidazoles and benzothiazoles and uses thereof” (Synaptic Pharmaceutical Corporation, priority 1996, dated 2004).

Where two headings read alike, the source gives them in different places.

Assay [1] concerns the target T1, human α2B adrenergic receptor (Homo sapiens, UniProt P18089).
T1 construct: expressed in transfected cells
T1 sequence (P18089 1-450): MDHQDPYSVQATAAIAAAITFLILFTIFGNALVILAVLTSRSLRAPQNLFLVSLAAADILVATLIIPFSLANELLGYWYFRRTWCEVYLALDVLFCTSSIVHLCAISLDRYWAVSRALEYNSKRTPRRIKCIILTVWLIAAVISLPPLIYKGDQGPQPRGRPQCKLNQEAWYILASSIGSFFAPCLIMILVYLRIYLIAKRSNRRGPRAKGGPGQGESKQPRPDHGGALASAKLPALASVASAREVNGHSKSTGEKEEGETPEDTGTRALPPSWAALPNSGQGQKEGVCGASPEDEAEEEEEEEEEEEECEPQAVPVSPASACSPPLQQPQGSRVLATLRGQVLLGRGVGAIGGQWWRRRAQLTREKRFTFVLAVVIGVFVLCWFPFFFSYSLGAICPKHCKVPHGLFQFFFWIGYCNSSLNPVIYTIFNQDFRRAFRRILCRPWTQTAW
In words: Radioligand binding assay, [3H]rauwolscine competition.

The target of assay [2] is T1, human α2B adrenergic receptor. Description: Agonist activity: inhibition of forskolin-stimulated cAMP synthesis. Format: cell-based. Particulars: for I.A (Intrinsic Activity) Alpha-2 B: maximum activity relative to maximum activity induced by norepinephrine, human α2B.
Assay [3] concerns the target T2, human α1C adrenergic receptor (Homo sapiens, UniProt P35348).
T2 construct: expressed in transfected cells
T2 sequence (P35348 1-466): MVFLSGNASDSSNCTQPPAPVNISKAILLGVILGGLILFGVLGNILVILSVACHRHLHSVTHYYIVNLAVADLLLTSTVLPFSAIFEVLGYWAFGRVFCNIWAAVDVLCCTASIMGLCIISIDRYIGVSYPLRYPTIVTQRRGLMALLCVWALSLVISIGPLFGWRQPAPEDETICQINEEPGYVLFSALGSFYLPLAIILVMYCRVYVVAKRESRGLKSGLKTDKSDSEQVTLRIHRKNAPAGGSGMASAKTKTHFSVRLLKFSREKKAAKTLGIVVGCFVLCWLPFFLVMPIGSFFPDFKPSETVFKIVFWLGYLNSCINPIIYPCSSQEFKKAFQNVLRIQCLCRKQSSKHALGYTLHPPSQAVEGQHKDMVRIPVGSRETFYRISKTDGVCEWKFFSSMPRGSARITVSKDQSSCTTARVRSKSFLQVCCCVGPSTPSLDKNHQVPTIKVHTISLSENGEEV
In words: Radioligand binding assay, [3H]prazosin competition. As to conditions: cloned human α1C (old nomenclature; = α1A), LM(tk-) cell membranes, read-out: pKi Alpha-1 C (converted). How it is done: Equilibrium competition binding assays were performed with membrane preparations from cultured LM(tk^−) cells stably transfected with the cloned human alpha adrenoreceptor subtypes except for α2b, which was expressed in Y-1 cells, using [^3H] prazosin for α1 receptors and [^3H] rauwolscine for α2 receptors. Further details of pharmacological evaluations of claimed compounds are described in Example 21.
The cloned human alpha-1 adrenergic receptor subtypes referred to throughout this application as α1A, α1B, and α1C have recently been assigned new subtype designations by the IUPHAR Nomenclature Committee as outlined in the 1995 Receptor and Ion Channel Nomenclature Supplement (Watson and Girdlestone, 1995). In the new nomenclature system the cloned human α1A receptor referred to herein was given the appellation “α1D,” while the cloned human α1C receptor referred to herein was given the appellation “α1A”. However, throughout this application and the supporting tables and figures the old nomenclature will be used to describe the cloned human alpha-1 adrenergic receptor subtypes. The old nomenclature is used throughout this application because stable cell lines expressing the cloned human alpha-1 adrenergic receptors were produced and deposited with the ATCC according to the Budapest Treaty for the Deposit of Microorganisms, under designations assigned before the nomenclature change.
The entire coding region of α1C (1401 bp), including 400 basepairs of 5′ untranslated sequence (5′ UT) and 200 p of 3′ untranslated sequences (3′ UT), was cloned into the KpnI site of the polylinker-modified pCEXV-3-derived eukaryotic expression vector, EXJ.RH. The construct involved ligation three partial overlapping fragments: a 5′ 0.6 kb HincII genomic clone, a central 1.8 EcoRI hippocampal cDNA clone, and a 3′ 0.6 Kb PstI genomic clone. The hippocampal cDNA fragment overlaps with the 5′ and 3′ genomic clones so that the HincII nad PstI sites at the 5′ and 3′ ends of the cDNA clone, respectively, were utilized for ligation. This full-length clone was cloned into the KpnI site of the expression vector, using the 5′ and 3′ KpnI sites of the fragment, derived from vector (i.e., pBluescript) and 3′-untranslated sequences, respectively. Stable cell lines were produced and selected as described above.
Transfected cells from culture flasks were scraped into 5 mL of 5 mM Tris-HCl, 5 mM EDTA, pH 7.5, and lysed by sonication. The cell lysates were centrifuged at 1000 rpm for 5 min at 4° C., and the supernatant was centrifuged at 30,000×g for 20 min at 4° C. The pellet was suspended in 50 mM Tris-HCl, 1 mM MgCl2, and 0.1% Ascorbic acid at pH 7.5. Binding of α2 antagonist [^3H] rauwolscine ([…]) to membrane preparations of LM(tk−) cells was done in a final volume of 0.25 mL and incubated at 37° C. for 20 min. Nonspecific binding was determined in the presence of 10 μM phentolamine. The reaction was stopped by filtration through GF/B filters using a cell harvester.

Assay [4] concerns the target T3, human α1B adrenergic receptor (Homo sapiens, UniProt P35368).
T3 construct: The entire coding region of α1B (1563 bp); expressed in transfected cells
T3 sequence (P35368 1-520): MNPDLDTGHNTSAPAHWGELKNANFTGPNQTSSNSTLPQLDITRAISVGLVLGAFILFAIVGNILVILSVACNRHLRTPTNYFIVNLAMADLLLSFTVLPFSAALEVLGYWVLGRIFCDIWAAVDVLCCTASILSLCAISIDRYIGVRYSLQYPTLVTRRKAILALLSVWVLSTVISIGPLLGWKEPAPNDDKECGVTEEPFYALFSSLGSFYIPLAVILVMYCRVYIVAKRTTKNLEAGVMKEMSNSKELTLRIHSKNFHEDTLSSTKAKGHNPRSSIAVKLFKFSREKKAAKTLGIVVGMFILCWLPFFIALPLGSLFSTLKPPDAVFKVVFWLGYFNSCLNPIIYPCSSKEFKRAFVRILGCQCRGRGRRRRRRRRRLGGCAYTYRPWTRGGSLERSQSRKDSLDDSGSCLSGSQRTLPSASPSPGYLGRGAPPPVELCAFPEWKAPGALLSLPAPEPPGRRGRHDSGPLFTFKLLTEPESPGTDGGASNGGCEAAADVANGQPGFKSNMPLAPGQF
The description is as above.

Where [5] appears, read: inhibition of forskolin-stimulated cAMP, stably transfected cells expressing human α2B, read-out: pEC50 Alpha-2 B (converted).
Setting [6] is: cloned human α1B, LM(tk-) cell membranes, [3H]prazosin, read-out: pKi Alpha-1 B (converted).

On to `Brc1cc(NC2=NCCN2)cc2cc[nH]c12` [Example 2, 7-Bromo-5-(2-imidazolin-2-ylamino)indole], for which the Ki is 2.88 nM in assay [1], 19.1 nM in assay [3] and 26.9 nM in assay [4] (setting [6]). In addition, the EC50 in assay [2] (setting [5]) was 1.91 nM. Also, the “I.A (Intrinsic Activity) Alpha-2 B” value in assay [2] was 0.75.
In the same order, the values of `N#Cc1cc(NC2=NCCN2)cc2cc[nH]c12` [Example 5, 7-Cyano-5-(2-imidazolin-2-ylamino)indole] are 15.5 nM, 1450 nM, 12600 nM, 316 nM and 0.60.
For the compound `CC(=O)c1cc(NC2=NCCN2)cc2cc[nH]c12` [Example 6, 7-Acetyl-5-(2-imidazolin-2-ylamino)indole], the Ki in assay [1] is 45.7 nM; in assay [3], 186 nM; in assay [4] (setting [6]) it was 56.2 nM. Moreover, the EC50 in assay [2] (setting [5]) is 81.3 nM. The “I.A (Intrinsic Activity) Alpha-2 B” value in assay [2] was determined as 0.70.
In the same order, the values of `c1nc2cc(NC3=NCCN3)ccc2s1` [Example 13, 5-(2-Imidazolin-2-ylamino)benzothiazole] are 4.57 nM, 708 nM, 708 nM, 10.2 nM and 0.82.
`c1nc2ccc(NC3=NCCN3)cc2s1` [Example 14, 6-(2-Imidazolin-2-ylamino)benzothiazole]: the Ki in assay [1] was 14.1 nM; in assay [3], 2340 nM; in assay [4] it was 3630 nM. The same compound showed an EC50 in assay [2] of 14.1 nM. For the same compound, the “I.A (Intrinsic Activity) Alpha-2 B” value in assay [2] was determined as 0.47.
In the case of `c1nc2ccc(NC3=NCCS3)cc2s1` [Example 15, 6-(2-Thiazolin-2-ylamino)benzothiazole], the Ki is 162 nM in assay [1] (cloned human α2B, Y-1 cell membranes, [3H]rauwolscine, read-out: pKi Alpha-2 B (converted)); 5750 nM in assay [3]; 7240 nM in assay [4]. The EC50 in assay [2] (setting [5]) is 138 nM. Also, the “I.A (Intrinsic Activity) Alpha-2 B” value in assay [2] is 0.57.
